According to US20260232579A1 (Aspire Biopharma, Inc., priority 2023, published 2026):

Assays:
[1] = Determination of pH of aspirin samples (USP <791>); format: physicochemical; settings: 1861.9 mg sample in 5.0 mL USP water, stirred 15 minutes
Protocol: Determination of the pH of a solution of a formulation disclosed herein may be accomplished by methods known in the art, e.g., as described herein and by standard protocols, e.g., by protocols described in the United States Pharmacopoeia, Chapter <791>.
The pH values of aspirin API and batch nos. F22006-001, F22006-004, F22006-002, F22006-003, and F22006-005 were determined using standard protocols as described in the United States Pharmacopoeia, Chapter <791>. […] The pH of the mixture was measured using a Mettler Toledo pH meter.

[2] = Henderson-Hasselbalch calculation of ionized to non-ionized aspirin at saliva pH
Text: In its conjugate base/ionized form, aspirin is unable to efficiently cross the mucous membranes in the oral cavity to enter the blood stream, rendering oral mucosal (e.g., sublingual and/or buccal) delivery of ionized aspirin inefficient. The pH of saliva in the oral cavity ranges between 6.2 to 7.6 (Dawood, […]. Saliva and Oral Health. Int. J. Adv. Res. Biol. Sci. 2018, 5, 1-45) depending on the individual, with an average pH of 6.7. The Henderson-Hasselbalch equation, represented by Equation 2 below, provides the ratio of conjugate base to acid at a given pH of an acid having a given pKa. […] Exemplary calculations are provided below. Using the lower saliva pH limit of 6.2 in equation 1: Using the upper saliva pH limit of 7.6 in equation 1: […]

SMILES: CC(=O)Oc1ccccc1C(=O)O [Aspirin, 2-acetoxybenzoic acid]
- pH [1]: 2.62
- ionized aspirin molecules for every one molecule of non-ionized aspirin ([2]; average saliva pH value of 6.7, pKa […]): 1584
- ionized aspirin molecules for every one molecule of non-ionized aspirin ([2]; lower saliva pH limit of 6.2, pKa […]): 501
- ionized aspirin molecules for every one molecule of non-ionized aspirin ([2]; upper saliva pH limit of 7.6, pKa […]): 12589
